{
  "source": "patent US10702542B2",
  "about": "“Glycan therapeutics and related methods thereof” (priority 2015, dated 2020)",
  "key": {"[1]": {"test_system": "Clostridium difficile (strain VPI 10463 (ATCC-43255))", "assay": "Mouse model of Clostridium difficile infection: disease-associated phenotypes", "assay_type": "in vivo, mice (female C57BL/6)", "method": "This experiment was conducted to analyze the effects of glycan therapeutics in a mouse model of Clostridium difficile infection (Chen et al, 2008, A Mouse Model of Clostridium difficile—Associated Disease. Gastroenterology 135(6), 1984-1992). In this model, normal mice were exposed to an antibiotic regimen that renders them susceptible to C. difficile infection and disease symptoms, similar with respect to their development and manifestation of human clinical disease. In humans, the disease is most often the result of exposure to broad spectrum antibiotics which is thought to result in intestinal dysbiosis and subsequent increased colonic colonization with C. difficile. The increased bio-burden of C. difficile leads to toxin production by the bacterium and colonic inflammation. Clinical manifestations in humans include diarrhea, weight loss, intestinal inflammation, fever and dehydration. The clinical incidence of C. difficile infection and disease is about 750,000 cases per year in the US.\n(§1) Mice (female C57BL/6, 8-10 weeks old, 16-18 grams each; Harlan Laboratories, Indianapolis, Ind.) were housed in groups of 3 per cage, with 4 cages per treatment group. Mice were exposed to a cocktail of antibiotics in their drinking water for a period of 9 days, starting on day −14, fourteen days before Clostridium difficile challenge on day 0. The antibiotic cocktail consisted of 1% glucose, kanamycin (0.5 mg/ml), gentamicin (0.044 mg/ml), colistin (1062.5 U/ml), metronidazole (0.269 mg/ml), ciprofloxacin (0.156 mg/ml), ampicillin (0.1 mg/ml) and vancomycin (0.056 mg/ml). Three days prior to Clostridium difficile challenge (on Day −3), mice received a single dose of clindamycin (10 mg/kg) in a volume of 0.5 mL distilled water by oral gavage (PO) (see Table 10). All chemicals were purchased from Sigma-Aldrich Corp. (St. Louis, Mo.). On day 0, mice were challenged with Clostridium difficile (strain VPI 10463 (ATCC-43255)) spores at approximately 4.5 log10 spores per mouse, PO, in a dose volume of 0.5 mL distilled water.\nDisease-associated phenotypes were recorded for a duration of ten days starting on the day of Clostridium difficile challenge (on day 0) through day 10. The phenotypes, including lethargy, hunched posture and ruffled coat, wet tail/abdomen and hypothermia were scored from 0 to 4: Normal=0; Lethargic=1; Lethargic+Hunched=2; Lethargic+Hunched+Wet tail/abdomen (diarrhea)=3; and Lethargic+Hunched+Wet tail/abdomen+Hypothermic=4. Death (day 0 to day 10 or 11) and weight (day 1 to day 7 and day 10) of the animals was also monitored and recorded.\nA treatment's ability to protect animals from death through day 6 in these experiments indicates disease prevention, e.g., in a human.\nEffects of treatments was assessed by comparing the disease-associated phenotypes in glycan-treated, untreated (plain water) and vancomycin-treated groups. FOS is a commercially-available, non-digestible fructooligosaccharide."}, "gut microbiota": {"test_system": "gut microbiota", "assay": "Mouse model of Clostridium difficile infection: shifts in microbial gut constituents (16S rRNA)", "assay_type": "in vivo, mice (female C57BL/6)", "conditions": "Day 6, FIG. 13; predicted from 16S rRNA sequencing using PICRUST", "method": "as §1\nTo determine how the gut microbiota composition responds to treatment with glycan therapeutics, 16S rRNA sequencing of fecal pellets on the V4 variable region using standard protocols from the Earth Microbiome Project was performed (www.earthmicrobiome.org/emp-standard-protocols/). […]"}, "[2]": {"conditions": "vancomycin PO gavage QD days 0 to 4"}},
  "data": [
    {"compound": "CN[C@H](CC(C)C)C(=O)N[C@H]1C(=O)N[C@@H](CC(N)=O)C(=O)N[C@H]2C(=O)N[C@H]3C(=O)N[C@H](C(=O)N[C@H](C(=O)O)c4cc(O)cc(O)c4-c4cc3ccc4O)[C@H](O)c3ccc(c(Cl)c3)Oc3cc2cc(c3O[C@@H]2O[C@H](CO)[C@@H](O)[C@H](O)[C@H]2O[C@H]2C[C@](C)(N)[C@H](O)[C@H](C)O2)Oc2ccc(cc2Cl)[C@H]1O", "note": "[Vancomycin, vancomycin]", "values": [
      {"measurement": "animal survival versus animals treated with water (vehicle)", "setting": "[1]; Kaplan-Meier, FIG. 10", "result": "significant difference"},
      {"measurement": "clinical score of survivors", "setting": "[1]; score 0 to 4, after end of treatment, days 7 to 10/11", "result": "above 0"},
      {"measurement": "animals died by day 10", "setting": "[1]; [2]", "result": 17, "unit": "%"},
      {"measurement": "animals survived to day 7", "setting": "[1]; [2]", "result": 100, "unit": "%"},
      {"measurement": "clinical signs on day 10", "setting": "[1]; [2]", "result": "exhibited clinical signs"},
      {"measurement": "predicted functional potential of the gut microbiome to convert primary bile acids to secondary bile acids", "setting": "gut microbiota", "result": "not observed"}
    ]}
  ]
}
